Experimental data: patent US11759455B2, “Substituted 1H-imidazo[4,5-b]pyridin-2(3H)-ones and their use as GLUN2B receptor modulators” (JANSSEN PHARMACEUTICA NV, priority 2016, dated 2023)

target: T1, human GluN1/GluN2B NMDA receptors (Homo sapiens, UniProt Q13224); assay: Cell-based calcium flux (FLIPR) assay on cloned human NR1/NR2B ion channels expressed in mammalian cells (standard and HTS buffer variants); conditions: standard assay buffer (0.5 mM MgCl2 dye loading; 137 mM NaCl, 4 mM KCl assay buffer), human GluN1/GluN2B cells, read-out: NR2B IC50 (μM) standard assay;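 further: stable Tet-On inducible cell line, Ca2+ influx triggered by glutamate at about EC40 plus 10 µM glycine, fluorescent dye read-out over 5 min, normalized to control wells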
T1 construct: expressed in transfected cells
T1 sequence (Q13224 27-1484, other chains not shown): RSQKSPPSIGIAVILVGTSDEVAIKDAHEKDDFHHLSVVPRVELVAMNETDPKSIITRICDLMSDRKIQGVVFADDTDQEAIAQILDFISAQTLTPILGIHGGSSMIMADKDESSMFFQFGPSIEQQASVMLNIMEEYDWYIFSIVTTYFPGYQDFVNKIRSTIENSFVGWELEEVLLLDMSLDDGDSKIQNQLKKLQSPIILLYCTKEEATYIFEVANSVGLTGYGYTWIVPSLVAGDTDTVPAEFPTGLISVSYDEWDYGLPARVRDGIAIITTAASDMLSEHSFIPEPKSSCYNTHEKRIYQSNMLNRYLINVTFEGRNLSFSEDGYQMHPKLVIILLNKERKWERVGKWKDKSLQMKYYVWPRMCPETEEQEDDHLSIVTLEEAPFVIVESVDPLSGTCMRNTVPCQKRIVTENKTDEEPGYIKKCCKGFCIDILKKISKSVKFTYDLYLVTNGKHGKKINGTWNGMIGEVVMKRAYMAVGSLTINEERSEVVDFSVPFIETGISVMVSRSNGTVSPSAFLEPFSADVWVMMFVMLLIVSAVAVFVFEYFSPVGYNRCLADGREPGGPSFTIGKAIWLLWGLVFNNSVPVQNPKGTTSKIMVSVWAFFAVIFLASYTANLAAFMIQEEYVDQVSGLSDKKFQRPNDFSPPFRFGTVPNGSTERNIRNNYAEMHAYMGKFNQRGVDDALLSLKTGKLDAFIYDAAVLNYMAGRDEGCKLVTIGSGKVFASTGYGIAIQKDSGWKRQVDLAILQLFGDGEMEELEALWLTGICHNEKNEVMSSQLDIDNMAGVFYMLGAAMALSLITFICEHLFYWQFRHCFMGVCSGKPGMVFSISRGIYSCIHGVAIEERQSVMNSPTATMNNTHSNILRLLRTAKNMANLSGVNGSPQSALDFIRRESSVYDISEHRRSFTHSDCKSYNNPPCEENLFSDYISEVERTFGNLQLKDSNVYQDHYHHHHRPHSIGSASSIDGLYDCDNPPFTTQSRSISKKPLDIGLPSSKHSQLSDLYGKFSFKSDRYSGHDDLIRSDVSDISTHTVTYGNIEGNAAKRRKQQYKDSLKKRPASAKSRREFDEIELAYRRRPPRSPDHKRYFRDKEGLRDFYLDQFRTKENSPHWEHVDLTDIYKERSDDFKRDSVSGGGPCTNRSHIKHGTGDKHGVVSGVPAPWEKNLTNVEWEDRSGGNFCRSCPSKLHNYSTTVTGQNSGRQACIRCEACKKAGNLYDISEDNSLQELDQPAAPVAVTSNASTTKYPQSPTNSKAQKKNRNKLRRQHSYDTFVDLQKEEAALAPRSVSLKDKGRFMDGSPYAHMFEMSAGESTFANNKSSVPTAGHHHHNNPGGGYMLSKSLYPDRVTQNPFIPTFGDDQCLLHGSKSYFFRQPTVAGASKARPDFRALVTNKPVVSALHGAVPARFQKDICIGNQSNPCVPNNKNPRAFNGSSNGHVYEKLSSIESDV

| Structure (SMILES) | IC50 |
| --- | --- |
| Cn1c(=O)n(CC(=O)N2CCC2)c2cc(-c3ccc(CO)s3)cnc21 [Example 89, 1-[2-(Azetidin-1-yl)-2-oxo-ethyl]-6-[5-(hydroxymethyl)-2-thienyl]-3-methyl-imidazo[4,5-b]pyridin-2-one] | 0.549 µM |
| Cn1c(=O)n(CC(=O)N2CC(F)C2)c2cc(-c3ccc(CO)s3)cnc21 [Example 90, 1-[2-(3-Fluoroazetidin-1-yl)-2-oxo-ethyl]-6-[5-(hydroxymethyl)-2-thienyl]-3-methyl-imidazo[4,5-b]pyridin-2-one] | 0.915 µM |
| CN(C)C(=O)Cn1c(=O)n(C)c2ncc(-c3ccc(CO)s3)cc21 [Example 91, 2-[6-[5-(Hydroxymethyl)-2-thienyl]-3-methyl-2-oxo-imidazo[4,5-b]pyridin-1-yl]-N,N-dimethyl-acetamide] | 1.7 µM |
| Cn1c(=O)n(CC(=O)N2CC(F)C2)c2cc(-c3ccsc3C(F)(F)F)cnc21 [Example 92, 1-[2-(3-Fluoroazetidin-1-yl)-2-oxo-ethyl]-3-methyl-6-[2-(trifluoromethyl)-3-thienyl]imidazo[4,5-b]pyridin-2-one] | 0.249 µM |
| Cn1c(=O)n(CC(=O)N2CCC2)c2cc(-c3ccc(C(F)F)s3)cnc21 [Example 93, 1-[2-(Azetidin-1-yl)-2-oxo-ethyl]-6-[5-(difluoromethyl)-2-thienyl]-3-methyl-imidazo[4,5-b]pyridin-2-one] | 0.006 µM |
| CN(C)C(=O)Cn1c(=O)n(C)c2ncc(-c3ccc(C(F)F)s3)cc21 [Example 94, 2-[6-[5-(Difluoromethyl)-2-thienyl]-3-methyl-2-oxo-imidazo[4,5-b]pyridin-1-yl]-N,N-dimethyl-acetamide] | 0.017 µM |
| Cn1c(=O)n(CC(=O)N2CCC2)c2cc(-c3ccsc3C(F)(F)F)cnc21 [Example 95, 1-[2-(Azetidin-1-yl)-2-oxo-ethyl]-3-methyl-6-[2-(trifluoromethyl)-3-thienyl]imidazo[4,5-b]pyridin-2-one] | 0.096 µM |
| CN(C)C(=O)Cn1c(=O)n(C)c2ncc(-c3ccsc3C(F)(F)F)cc21 [Example 96, N,N-Dimethyl-2-[3-methyl-2-oxo-6-[2-(trifluoromethyl)-3-thienyl]imidazo[4,5-b]pyridin-1-yl]acetamide] | 0.522 µM |
| CN(C)C(=O)Cn1c(=O)n(C)c2ncc(-c3csc(C(F)F)c3)cc21 [Example 97, 2-[6-[5-(Difluoromethyl)-3-thienyl]-3-methyl-2-oxo-imidazo[4,5-b]pyridin-1-yl]-N,N-dimethyl-acetamide] | 0.015 µM |
| Cn1c(=O)n(CC(=O)N2CCC2)c2cc(-c3csc(C(F)F)c3)cnc21 [Example 98, 1-[2-(Azetidin-1-yl)-2-oxo-ethyl]-6-[5-(difluoromethyl)-3-thienyl]-3-methyl-imidazo[4,5-b]pyridin-2-one] | 0.013 µM |
| Cn1c(=O)n(Cc2cccnn2)c2cc(-c3ccc(C(F)F)s3)cnc21 [Example 100, 6-[5-(Difluoromethyl)-2-thienyl]-3-methyl-1-(pyridazin-3-ylmethyl)imidazo[4,5-b]pyridin-2-one] | 0.033 µM |
| CN(C)C(=O)Cn1c(=O)n(C)c2ncc(-c3csc(C(F)(F)F)c3)cc21 [Example 101, N,N-Dimethyl-2-[3-methyl-2-oxo-6-[5-(trifluoromethyl)-3-thienyl]imidazo[4,5-b]pyridin-1-yl]acetamide] | 0.019 µM |
| Cn1c(=O)n(Cc2cccnn2)c2cc(-c3csc(C(F)(F)F)c3)cnc21 [Example 103, 3-Methyl-1-(pyridazin-3-ylmethyl)-6-[5-(trifluoromethyl)-3-thienyl]imidazo[4,5-b]pyridin-2-one] | 0.017 µM |
| Cn1c(=O)n(CC(=O)N2CCC2)c2cc(-c3csc(C(F)(F)F)c3)cnc21 [Example 104, 1-[2-(Azetidin-1-yl)-2-oxo-ethyl]-3-methyl-6-[5-(trifluoromethyl)-3-thienyl]imidazo[4,5-b]pyridin-2-one] | 0.048 µM |
| Cn1c(=O)n(CC(=O)N2CCC2)c2cc(-c3ccc(C4CC4)s3)cnc21 [Example 105, 1-[2-(Azetidin-1-yl)-2-oxo-ethyl]-6-(5-cyclopropyl-2-thienyl)-3-methyl-imidazo[4,5-b]pyridin-2-one] | 0.081 µM |
| Cn1c(=O)n(CC(=O)N2CC(F)C2)c2cc(-c3ccc(C4CC4)s3)cnc21 [Example 106, 6-(5-Cyclopropyl-2-thienyl)-1-[2-(3-fluoroazetidin-1-yl)-2-oxo-ethyl]-3-methyl-imidazo[4,5-b]pyridin-2-one] | 0.039 µM |
| Cn1c(=O)n(CC(=O)N2CCC2)c2cc(-c3csc(C(F)(F)F)n3)cnc21 [Example 107, 1-[2-(Azetidin-1-yl)-2-oxo-ethyl]-3-methyl-6-[2-(trifluoromethyl)thiazol-4-yl]imidazo[4,5-b]pyridin-2-one] | 0.087 µM |
| CN(C)C(=O)Cn1c(=O)n(C)c2ncc(-c3csc(C(F)(F)F)n3)cc21 [Example 108, N,N-Dimethyl-2-[3-methyl-2-oxo-6-[2-(trifluoromethyl)thiazol-4-yl]imidazo[4,5-b]pyridin-1-yl]acetamide] | 0.047 µM |
| Cn1c(=O)n(CC(=O)N2CC(F)C2)c2cc(-c3csc(C(F)(F)F)n3)cnc21 [Example 109, 1-[2-(3-Fluoroazetidin-1-yl)-2-oxo-ethyl]-3-methyl-6-[2-(trifluoromethyl)thiazol-4-yl]imidazo[4,5-b]pyridin-2-one] | 0.04 µM |

| Structure (SMILES) | IC50 |
| --- | --- |
| CN(C)C(=O)Cn1c(=O)n(C)c2ncc(-c3ccc(C4CC4)s3)cc21 [Example 110, 2-[6-(5-Cyclopropyl-2-thienyl)-3-methyl-2-oxo-imidazo[4,5-b]pyridin-1-yl]-N,N-dimethyl-acetamide] | 0.04 µM |
| Cn1c(=O)n(CC(=O)N2CCC2)c2cc(-c3ccc(C(F)(F)C(F)(F)F)s3)cnc21 [Example 111, 1-[2-(Azetidin-1-yl)-2-oxo-ethyl]-3-methyl-6-[5-(1,1,2,2,2-pentafluoroethyl)-2-thienyl]imidazo[4,5-b]pyridin-2-one] | 0.037 µM |
| Cc1ncc(-c2cnc3c(c2)n(CC(=O)N2CCC2)c(=O)n3C)s1 [Example 112, 1-[2-(Azetidin-1-yl)-2-oxo-ethyl]-3-methyl-6-(2-methylthiazol-5-yl)imidazo[4,5-b]pyridin-2-one] | 5.1 µM |
| Cc1ncc(-c2cnc3c(c2)n(CC(=O)N2CC(F)C2)c(=O)n3C)s1 [Example 113, 1-[2-(3-Fluoroazetidin-1-yl)-2-oxo-ethyl]-3-methyl-6-(2-methylthiazol-5-yl)imidazo[4,5-b]pyridin-2-one] | 5.36 µM |
| Cc1ncc(-c2cnc3c(c2)n(CC(=O)N(C)C)c(=O)n3C)s1 [Example 114, N,N-Dimethyl-2-[3-methyl-6-(2-methylthiazol-5-yl)-2-oxo-imidazo[4,5-b]pyridin-1-yl]acetamide] | 11.7 µM |
| Cn1c(=O)n(CC(=O)N2CCC2)c2cc(-c3cnc(C(F)(F)F)s3)cnc21 [Example 115, 1-[2-(Azetidin-1-yl)-2-oxo-ethyl]-3-methyl-6-[2-(trifluoromethyl)thiazol-5-yl]imidazo[4,5-b]pyridin-2-one] | 0.82 µM |
| Cn1c(=O)n(CC(=O)N2CC(F)C2)c2cc(-c3cnc(C(F)(F)F)s3)cnc21 [Example 116, 1-[2-(3-Fluoroazetidin-1-yl)-2-oxo-ethyl]-3-methyl-6-[2-(trifluoromethyl)thiazol-5-yl]imidazo[4,5-b]pyridin-2-one] | 0.705 µM |
| Cn1c(=O)n(CC(=O)N2CCC2)c2cc(-c3cc(C(F)F)cs3)cnc21 [Example 117, 1-[2-(Azetidin-1-yl)-2-oxo-ethyl]-6-[4-(difluoromethyl)-2-thienyl]-3-methyl-imidazo[4,5-b]pyridin-2-one] | 0.038 µM |
| Cn1c(=O)n(CC(=O)N2CC(F)C2)c2cc(-c3cc(C(F)F)cs3)cnc21 [Example 118, 6-[4-(Difluoromethyl)-2-thienyl]-1-[2-(3-fluoroazetidin-1-yl)-2-oxo-ethyl]-3-methyl-imidazo[4,5-b]pyridin-2-one] | 0.02 µM |
| Cc1csc(-c2cnc3[nH]c(=O)n(Cc4cc(C)on4)c3c2)c1 [Example 125, 1-[(5-Methylisoxazol-3-yl)methyl]-6-(4-methyl-2-thienyl)-3H-imidazo[4,5-b]pyridin-2-one] | 0.082 µM |
| Cc1cc(Cn2c(=O)[nH]c3ncc(-c4ccccc4C)cc32)no1 [Example 126, 1-[(5-Methylisoxazol-3-yl)methyl]-6-(o-tolyl)-3H-imidazo[4,5-b]pyridin-2-one] | 0.038 µM |
| Cc1csc(-c2cnc3[nH]c(=O)n(Cc4nc(C)no4)c3c2)c1 [Example 127, 1-[(3-Methyl-1,2,4-oxadiazol-5-yl)methyl]-6-(4-methyl-2-thienyl)-3H-imidazo[4,5-b]pyridin-2-one] | 0.095 µM |
| Cn1ccc(Cn2c(=O)[nH]c3ncc(-c4ccc(F)cc4)cc32)n1 [Example 128, 6-(4-Fluorophenyl)-1-[(1-methylpyrazol-3-yl)methyl]-3H-imidazo[4,5-b]pyridin-2-one] | 5.16 µM |
| Cc1cc(-c2cnc3[nH]c(=O)n(Cc4ccn(C)n4)c3c2)ccc1F [Example 129, 6-(4-Fluoro-3-methyl-phenyl)-1-[(1-methylpyrazol-3-yl)methyl]-3H-imidazo[4,5-b]pyridin-2-one] | 0.394 µM |
| Cn1ccc(Cn2c(=O)[nH]c3ncc(-c4ccc(F)c(Cl)c4)cc32)n1 [Example 130, 6-(3-Chloro-4-fluoro-phenyl)-1-[(1-methylpyrazol-3-yl)methyl]-3H-imidazo[4,5-b]pyridin-2-one] | 4.73 µM |
| Cn1ccc(Cn2c(=O)[nH]c3ncc(-c4ccc(F)c(F)c4)cc32)n1 [Example 131, 6-(3,4-Difluorophenyl)-1-[(1-methylpyrazol-3-yl)methyl]-3H-imidazo[4,5-b]pyridin-2-one] | 3.56 µM |
| Cn1ccc(Cn2c(=O)[nH]c3ncc(-c4ccc(F)cc4F)cc32)n1 [Example 132, 6-(2,4-Difluorophenyl)-1-[(1-methylpyrazol-3-yl)methyl]-3H-imidazo[4,5-b]pyridin-2-one] | 6.76 µM |
| CCOC(=O)Cn1c(=O)[nH]c2ncc(-c3cccc(C(F)(F)F)c3)cc21 [Example 134, Ethyl 2-[2-oxo-6-[3-(trifluoromethyl)phenyl]-3H-imidazo[4,5-b]pyridin-1-yl]acetate] | 0.035 µM |
